This note sets out measurements from patent US12486253B2, “Therapeutics for the degradation of mutant BRAF” (C4 THERAPEUTICS, INC., priority 2021, dated 2025).

This experiment concerns the target BRAF V600E (Homo sapiens, UniProt P15056, V600E). Description: HiBiT cellular BRAF^V600E degradation assay. The format is cell-based. Particulars: for DC50: concentration at which 50% of total cellular BRAF^V600E is degraded; for Emax: read-out: HiBit 24 h Emax. For orientation: The HiBiT peptide binds its large partner to form an active luciferase.
The mark [1] stands for this setting: A375.10 cells, 24 h, residual protein remaining in the cell.

Where two headings read alike, the source gives them in different places.

Chain of BRAF V600E (P15056 whole entry V600E): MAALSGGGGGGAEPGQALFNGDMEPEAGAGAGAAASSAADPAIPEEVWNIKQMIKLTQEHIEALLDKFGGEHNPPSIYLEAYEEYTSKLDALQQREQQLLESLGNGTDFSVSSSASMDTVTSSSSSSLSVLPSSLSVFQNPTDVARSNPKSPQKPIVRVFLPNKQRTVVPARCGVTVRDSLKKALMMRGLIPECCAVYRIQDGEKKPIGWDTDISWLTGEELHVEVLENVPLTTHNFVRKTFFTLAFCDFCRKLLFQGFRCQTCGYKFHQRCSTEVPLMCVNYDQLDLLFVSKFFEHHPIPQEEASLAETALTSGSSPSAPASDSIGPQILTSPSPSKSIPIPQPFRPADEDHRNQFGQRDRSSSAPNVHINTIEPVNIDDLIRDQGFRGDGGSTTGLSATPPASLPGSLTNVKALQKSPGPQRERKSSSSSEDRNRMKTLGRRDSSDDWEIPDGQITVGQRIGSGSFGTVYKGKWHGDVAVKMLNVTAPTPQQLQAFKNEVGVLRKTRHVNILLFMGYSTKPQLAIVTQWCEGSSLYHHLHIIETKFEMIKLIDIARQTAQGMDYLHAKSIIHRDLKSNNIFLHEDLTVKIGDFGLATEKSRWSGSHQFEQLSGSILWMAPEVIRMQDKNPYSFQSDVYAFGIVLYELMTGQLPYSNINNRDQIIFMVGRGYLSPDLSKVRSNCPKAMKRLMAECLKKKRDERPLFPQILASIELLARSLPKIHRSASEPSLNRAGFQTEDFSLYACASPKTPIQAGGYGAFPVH

As to `CCN(C)S(=O)(=O)Nc1ccc(F)c(Oc2ccc3ncn([C@H]4COC5(CCN(C(=O)CC6CCN(c7cc8c(cc7F)c(N7CCC(=O)NC7=O)nn8C)CC6)CC5)C4)c(=O)c3c2)c1C#N` [Example 180, (3R)-3-[6-[2-cyano-3-[[ethyl(methyl)sulfamoyl]amino]-6-fluorophenoxy]-4-oxoquinazolin-3-yl]-8-[2-[1-[3-(2,4-dioxo-1,3-diazinan-1-yl)-5-fluoro-1-methylindazol-6-yl]piperidin-4-yl]acetyl]-1-oxa-8-azaspiro[4.5]decane], the maximal response (Emax) came out at 20.6%. This compound also registered a DC50 (A375.10 cells, 24 h) of 0.00962 µM.

As for `CCN(C)S(=O)(=O)Nc1ccc(F)c(Oc2ccc3ncn([C@H]4COC5(CCN(C(=O)CC6(O)CCN(c7cc8c(cc7F)c(N7CCC(=O)NC7=O)nn8C)CC6)CC5)C4)c(=O)c3c2N)c1C#N` [Example 182, (3R)-3-[5-amino-6-[2-cyano-3-[[ethyl(methyl)sulfamoyl]amino]-6-fluorophenoxy]-4-oxoquinazolin-3-yl]-8-[2-[1-[3-(2,4-dioxo-1,3-diazinan-1-yl)-5-fluoro-1-methylindazol-6-yl]-4-hydroxypiperidin-4-yl]acetyl]-1-oxa-8-azaspiro[4.5]decane], the DC50 (A375.10 cells, 24 h) stood at 0.0162 µM. The maximum response (Emax) under setting [1] was 19.8%.

Where the note is “A375.10 cells, 24 h”, `CCN(C)S(=O)(=O)Nc1ccc(F)c(Oc2ccc3ncn([C@H]4COC5(CCN(C(=O)CC6(O)CCN(c7cc8c(cc7F)c(N7CCC(=O)NC7=O)nn8C)CC6)CC5)C4)c(=O)c3c2O)c1C#N` [Example 186, (3R)-3-[6-[2-cyano-3-[[ethyl(methyl)sulfamoyl]amino]-6-fluorophenoxy]-5-hydroxy-4-oxoquinazolin-3-yl]-8-[2-[1-[3-(2,4-dioxo-1,3-diazinan-1-yl)-5-fluoro-1-methylindazol-6-yl]-4-hydroxypiperidin-4-yl]acetyl]-1-oxa-8-azaspiro[4.5]decane] displayed a DC50 of 0.0163 µM. Moreover, the maximal response (Emax) under setting [1] came out at 25.1%.

Regarding `Cn1nc(N2CCC(=O)NC2=O)c2cc(F)c(N3CCC(O)(CC(=O)N4CCC5(CC4)C[C@@H](n4cnc6ccc(Oc7c(F)ccc(NS(=O)(=O)N8CCCCC8)c7C#N)cc6c4=O)CO5)CC3)cc21` [Example 187, N-[2-cyano-3-[3-[(3R)-8-[2-[1-[3-(2,4-dioxo-1,3-diazinan-1-yl)-5-fluoro-1-methylindazol-6-yl]-4-hydroxypiperidin-4-yl]acetyl]-1-oxa-8-azaspiro[4.5]decan-3-yl]-4-oxoquinazolin-6-yl]oxy-4-fluorophenyl]piperidine-1-sulfonamide], where the note is “A375.10 cells, 24 h”, the DC50 was found to be 0.0387 µM. Also, the Emax under setting [1] was found to be 24.1%.

Consider `Cn1nc(N2CCC(=O)NC2=O)c2cc(F)c(N3CCC(O)(CC(=O)N4CCC5(CC4)C[C@@H](n4cnc6ccc(Oc7c(F)ccc(NS(=O)(=O)C8CCCCC8)c7C#N)cc6c4=O)CO5)CC3)cc21` [Example 188, N-[2-cyano-3-[3-[(3R)-8-[2-[1-[3-(2,4-dioxo-1,3-diazinan-1-yl)-5-fluoro-1-methylindazol-6-yl]-4-hydroxypiperidin-4-yl]acetyl]-1-oxa-8-azaspiro[4.5]decan-3-yl]-4-oxoquinazolin-6-yl]oxy-4-fluorophenyl]cyclohexanesulfonamide], for which the maximal response (Emax) worked out at 27.3%. In addition, the DC50 (A375.10 cells, 24 h) is 0.0406 µM.

In the case of `CC(C)S(=O)(=O)Nc1ccc(F)c(Oc2ccc3ncn([C@H]4COC5(CCN(C(=O)CC6(O)CCN(c7cc8c(cc7F)c(N7CCC(=O)NC7=O)nn8C)CC6)CC5)C4)c(=O)c3c2)c1C#N` [Example 189, N-[2-cyano-3-[3-[(3R)-8-[2-[1-[3-(2,4-dioxo-1,3-diazinan-1-yl)-5-fluoro-1-methylindazol-6-yl]-4-hydroxypiperidin-4-yl]acetyl]-1-oxa-8-azaspiro[4.5]decan-3-yl]-4-oxoquinazolin-6-yl]oxy-4-fluorophenyl]propane-2-sulfonamide], where the note is “A375.10 cells, 24 h”, the DC50 came to 0.0235 µM. In addition, the Emax under setting [1] was determined as 24.5%.

Regarding `Cn1nc(N2CCC(=O)NC2=O)c2cc(F)c(N3CCC(O)(CC(=O)N4CCC5(CC4)C[C@@H](n4cnc6ccc(Oc7c(F)ccc(NS(=O)(=O)N8CC[C@@H](F)C8)c7C#N)cc6c4=O)CO5)CC3)cc21` [Example 190, (3R)—N-[2-cyano-3-[3-[(3R)-8-[2-[1-[3-(2,4-dioxo-1,3-diazinan-1-yl)-5-fluoro-1-methylindazol-6-yl]-4-hydroxypiperidin-4-yl]acetyl]-1-oxa-8-azaspiro[4.5]decan-3-yl]-4-oxoquinazolin-6-yl]oxy-4-fluorophenyl]-3-fluoropyrrolidine-1-sulfonamide], for the setting “A375.10 cells, 24 h”, the 50% degradation concentration (DC50) came out at 0.0393 µM. For the same compound, under setting [1], the Emax stood at 24.7%.

The compound `Cn1nc(N2CCC(=O)NC2=O)c2cc(F)c(N3CCC(O)(CC(=O)N4CCC5(CC4)C[C@@H](n4cnc6ccc(Oc7c(F)ccc(NS(=O)(=O)C8CCCC8)c7C#N)cc6c4=O)CO5)CC3)cc21` [Example 191, N-[2-cyano-3-[3-[(3R)-8-[2-[1-[3-(2,4-dioxo-1,3-diazinan-1-yl)-5-fluoro-1-methylindazol-6-yl]-4-hydroxypiperidin-4-yl]acetyl]-1-oxa-8-azaspiro[4.5]decan-3-yl]-4-oxoquinazolin-6-yl]oxy-4-fluorophenyl]cyclopentanesulfonamide] yielded a 50% degradation concentration (DC50) (A375.10 cells, 24 h) of 0.0271 µM. In addition, under setting [1], the Emax was 26.8%.

Regarding `Cn1nc(N2CCC(=O)NC2=O)c2cc(F)c(N3CCC(O)(CC(=O)N4CCC5(CC4)C[C@@H](n4cnc6ccc(Oc7c(F)ccc(NS(=O)(=O)C8CC8)c7C#N)cc6c4=O)CO5)CC3)cc21` [Example 192, N-[2-cyano-3-[3-[(3R)-8-[2-[1-[3-(2,4-dioxo-1,3-diazinan-1-yl)-5-fluoro-1-methylindazol-6-yl]-4-hydroxypiperidin-4-yl]acetyl]-1-oxa-8-azaspiro[4.5]decan-3-yl]-4-oxoquinazolin-6-yl]oxy-4-fluorophenyl]cyclopropanesulfonamide], the 50% degradation concentration (DC50) (A375.10 cells, 24 h) was determined as 0.0317 µM. The maximal effect (Emax) under setting [1] was 32.2%.

The compound `COC1CN(S(=O)(=O)Nc2ccc(F)c(Oc3ccc4ncn([C@H]5COC6(CCN(C(=O)CC7(O)CCN(c8cc9c(cc8F)c(N8CCC(=O)NC8=O)nn9C)CC7)CC6)C5)c(=O)c4c3)c2C#N)C1` [Example 193, N-[2-cyano-3-[3-[(3R)-8-[2-[1-[3-(2,4-dioxo-1,3-diazinan-1-yl)-5-fluoro-1-methylindazol-6-yl]-4-hydroxypiperidin-4-yl]acetyl]-1-oxa-8-azaspiro[4.5]decan-3-yl]-4-oxoquinazolin-6-yl]oxy-4-fluorophenyl]-3-methoxyazetidine-1-sulfonamide] came in with a 50% degradation concentration (DC50) (A375.10 cells, 24 h) of 0.142 µM. In addition, under setting [1], the Emax stood at 33.8%.

Regarding `Cn1nc(N2CCC(=O)NC2=O)c2cc(F)c(N3CCC(O)(CC(=O)N4CCC5(CC4)C[C@@H](n4cnc6ccc(Oc7c(F)ccc(NS(=O)(=O)N8CC9CC9C8)c7C#N)cc6c4=O)CO5)CC3)cc21` (stereo partly drawn) [Example 194, N-[2-cyano-3-[3-[(3R)-8-[2-[1-[3-(2,4-dioxo-1,3-diazinan-1-yl)-5-fluoro-1-methylindazol-6-yl]-4-hydroxypiperidin-4-yl]acetyl]-1-oxa-8-azaspiro[4.5]decan-3-yl]-4-oxoquinazolin-6-yl]oxy-4-fluorophenyl]-3-azabicyclo[3.1.0]hexane-3-sulfonamide], the 50% degradation concentration (DC50) (A375.10 cells, 24 h) worked out at 0.0428 µM. The maximal effect (Emax) under setting [1] is 26.2%.

Compound `Cn1nc(N2CCC(=O)NC2=O)c2cc(F)c(N3CCC(O)(CC(=O)N4CCC5(CC4)C[C@@H](n4cnc6ccc(Oc7c(F)ccc(NS(=O)(=O)N8CCCC8)c7C#N)cc6c4=O)CO5)CC3)cc21` [Example 195, N-[2-cyano-3-[3-[(3R)-8-[2-[1-[3-(2,4-dioxo-1,3-diazinan-1-yl)-5-fluoro-1-methylindazol-6-yl]-4-hydroxypiperidin-4-yl]acetyl]-1-oxa-8-azaspiro[4.5]decan-3-yl]-4-oxoquinazolin-6-yl]oxy-4-fluorophenyl]pyrrolidine-1-sulfonamide] displayed a DC50 (A375.10 cells, 24 h) of 0.016 µM. Also, the maximum response (Emax) under setting [1] amounted to 26.3%.

Compound `Cn1nc(N2CCC(=O)NC2=O)c2cc(F)c(N3CCC(O)(CC(=O)N4CCC5(CC4)C[C@@H](n4cnc6ccc(Oc7c(F)ccc(NS(=O)(=O)N8CCC8)c7C#N)cc6c4=O)CO5)CC3)cc21` [Example 196, N-[2-cyano-3-[3-[(3R)-8-[2-[1-[3-(2,4-dioxo-1,3-diazinan-1-yl)-5-fluoro-1-methylindazol-6-yl]-4-hydroxypiperidin-4-yl]acetyl]-1-oxa-8-azaspiro[4.5]decan-3-yl]-4-oxoquinazolin-6-yl]oxy-4-fluorophenyl]azetidine-1-sulfonamide] displayed a DC50 (A375.10 cells, 24 h) of 9.99 µM. For the same compound, the Emax under setting [1] amounted to 89.4%.

Compound `CN(C1CC1)S(=O)(=O)Nc1ccc(F)c(Oc2ccc3ncn([C@H]4COC5(CCN(C(=O)CC6(O)CCN(c7cc8c(cc7F)c(N7CCC(=O)NC7=O)nn8C)CC6)CC5)C4)c(=O)c3c2)c1C#N` [Example 197, (3R)-3-[6-[2-cyano-3-[[cyclopropyl(methyl)sulfamoyl]amino]-6-fluorophenoxy]-4-oxoquinazolin-3-yl]-8-[2-[1-[3-(2,4-dioxo-1,3-diazinan-1-yl)-5-fluoro-1-methylindazol-6-yl]-4-hydroxypiperidin-4-yl]acetyl]-1-oxa-8-azaspiro[4.5]decane] returned a DC50 (A375.10 cells, 24 h) of 0.0257 µM. Moreover, the Emax under setting [1] stood at 27.8%.

`Cn1nc(N2CCC(=O)NC2=O)c2cc(F)c(N3CCC(O)(CC(=O)N4CCC5(CC4)C[C@@H](n4cnc6ccc(Oc7c(F)ccc(NS(=O)(=O)C8CCC8)c7C#N)cc6c4=O)CO5)CC3)cc21` [Example 198, N-[2-cyano-3-[3-[(3R)-8-[2-[1-[3-(2,4-dioxo-1,3-diazinan-1-yl)-5-fluoro-1-methylindazol-6-yl]-4-hydroxypiperidin-4-yl]acetyl]-1-oxa-8-azaspiro[4.5]decan-3-yl]-4-oxoquinazolin-6-yl]oxy-4-fluorophenyl]cyclobutanesulfonamide] yielded a DC50 (A375.10 cells, 24 h) of 0.0287 µM. In addition, the maximal effect (Emax) under setting [1] came out at 28.1%.

One may read the DC50 as the concentration at which degradation of the target reaches its halfway point. A lower DC50 goes with degradation at low concentration. As usually defined, the Emax is the maximal effect, on the per cent scale that the assay sets.
